# From publication PMC9595134, “Novel pituitary actions of GnRH in teleost: The link between reproduction and feeding regulation” (Frontiers in Endocrinology, 2022)
# Where a SMILES comes first, the peptide text is derived from it. [ ]: non-standard residue; d: D form. pGlu = O=C1CC[C@@H](C(=O)O)N1
# What was measured:
# [1] = tested on: pituitary; conditions: teleost; ref [5], [10]; cited from earlier work
# Description: Subsequently, GnRH2 had been firstly found in chicken so that this variant was also named as chicken GnRH (cGnRH) ([3]). In addition, the third GnRH variant (GnRH3) was an ubiquitous and unique subtype existing in fish ([3]), which was primitively discovered in salmon so that it was named as salmon GnRH (sGnRH) ([4]). Multiple GnRH variants (two or three forms) are present in all teleosts ([5]), but the receptor selectivity a ...
# [2] = tested on: grass carp pituitary cells; experiment: RNA-seq of pituitary cells treated with GnRH3; type: cell-based, grass carp (Ctenopharyngodon idellus); conditions: GnRH3 1 μM, 24 h
# Description: Then, total RNA was extracted from each well by TRIzol reagent (Yeasen) and DNase II was used to eliminate the interference of genomic DNA. The concentration and purity of each RNA sample were detected by a NanoDrop 2000 spectrophotometer, while the quality of RNA was identified on an Agilent 2100 Bioanalyzer using the RNA 6000 Nano Kit (Agilent Technologies, Santa Clara, CA, USA). […] In this study, a read depth of 0.6 billion 150-bp single-end reads was used and about 90% of reads were mapped to the genome. Gene expression levels were assigned individual values by being normalized to the number of transcripts per kilobase of exon model per million […]. […] The P-value indicated the credibility of each differential gene expression and was corrected by the false discovery rate (FDR) ([21]). […] In the present study, using grass carp pituitary cells as model, high-throughput RNA-seq was used to examine the pituitary actions of GnRH3 in teleost. […] The most abundant GO terms among the cellular component category were ‘intracellular part’, ‘membrane-bounded organelle’, ‘intracellular membrane-bounded organelle’, ‘organelle part’, and ‘intracellular organelle part’. Furthermore, the plentiful groups of biological processes were ‘metabolic process’, ‘organic substance metabolic process’, ‘primary metabolic process’, ‘cellular metabolic process’, and ‘biological regulation ( Figure 3A ).
compound,measurement,setting,value
CC(C)C[C@H](NC(=O)[C@H](Cc1c[nH]c2ccccc12)NC(=O)CNC(=O)[C@H](Cc1ccc(O)cc1)NC(=O)[C@H](CO)NC(=O)[C@H](Cc1c[nH]c2ccccc12)NC(=O)[C@H](Cc1c[nH]cn1)NC(=O)[C@@H]1CCC(=O)N1)C(=O)N1CCC[C@H]1C(=O)NCC(N)=O [GnRH3] ([pGlu]HWSYGWLPG-NH2),effect on LH and FSH secretion in the pituitary,[1],could stimulate
same,"fold change (FC), suhb mRNA","[2]; 3-Beta-hydroxysteroid sulfotransferase, FDR 2.86E-22",0.44
same,"fold change (FC), atp5me mRNA","[2]; ATP synthase subunit e, FDR 5.40E-07",0.69
same,"fold change (FC), arpc4 mRNA","[2]; Actin-related protein 2/3 subunit 4-like, FDR 1.86E-42",0.66
same,"fold change (FC), creb2 mRNA","[2]; Activating transcription factor 4b, FDR 1.69E-07",1.56
same,"fold change (FC), cart2 mRNA","[2]; Amphetamine-regulated transcript II precursor, FDR 1.73E-22",19.16
same,"fold change (FC), anx11 mRNA","[2]; Annexin 11a, FDR 0",3.17
same,"fold change (FC), mx1 mRNA","[2]; Antiviral effector Mx3, FDR 0.004203",0.29
same,"fold change (FC), manf mRNA","[2]; Astrocyte-derived neurotrophic factor, FDR 6.58E-124",1.71
same,"fold change (FC), npr3 mRNA","[2]; Atrial natriuretic peptide receptor 3 isoform X1, FDR 0",11.53
same,"fold change (FC), e2.7.3.2 mRNA","[2]; Brain creatine kinase b, FDR 0",3.88
same,"fold change (FC), agrb1 mRNA","[2]; Brain-specific angiogenesis inhibitor 1-like, FDR 0",8.87
same,"fold change (FC), calm mRNA","[2]; Calmodulin, FDR 2.37E-221",0.68
same,"fold change (FC), ctsl mRNA","[2]; Cathepsin La isoform X1, FDR 0",2.55
same,"fold change (FC), cckar mRNA","[2]; Cholecystokinin receptor-like isoform, FDR 0.40",1.41
same,"fold change (FC), chd4 mRNA","[2]; Chromodomain-DNA-binding protein 4, FDR 3.30E-172",0.64
same,"fold change (FC), ctro mRNA","[2]; Citron Rho-interacting kinase, FDR 3.29E-164",5.24
same,"fold change (FC), bha15 mRNA","[2]; Class A basic helix-loop-helix protein 15, FDR 0",1.66
same,"fold change (FC), sod1 mRNA","[2]; Copper/zinc superoxide dismutase, FDR 1.09E-31",0.69
same,"fold change (FC), mdh1 mRNA","[2]; Cytosolic malate dehydrogenase, FDR 4.31E-77",0.68
same,"fold change (FC), dgkz mRNA","[2]; Diacylglycerol kinase zeta-like isoform X1, FDR 0.003213",0.41
same,"fold change (FC), drd2 mRNA","[2]; Dopamine D2 receptor, FDR 2.63E-37",0.35
same,"fold change (FC), rergl mRNA","[2]; Estrogen-regulated inhibitor-like protein, FDR 2.35E-26",6.29
same,"fold change (FC), npy2r mRNA","[2]; Europeptide Y receptor type 2-like, FDR 0.07342027",0.44
same,"fold change (FC), fabp7 mRNA","[2]; Fatty acid binding protein 7, FDR 5.12E-107",0.50
same,"fold change (FC), fabp3 mRNA","[2]; Fatty-acid binding protein 3b, FDR 1.56E-177",0.63
same,"fold change (FC), fth1 mRNA","[2]; Ferritin heavy chain, FDR 0",1.90
same,"fold change (FC), gmpr1 mRNA","[2]; GMP reductase 1, FDR 2.64E-126",0.61
same,"fold change (FC), bip mRNA","[2]; GRP78, FDR 5.39E-31",1.78
same,"fold change (FC), ggh mRNA","[2]; Gamma-glutamyl hydrolase, FDR 1.06E-186",1.51
same,"fold change (FC), grp mRNA","[2]; Gastrin-releasing peptide-like, FDR 1.46E-176",1.52
same,"fold change (FC), gst mRNA","[2]; Glutathione S-transferase, FDR 8.59E-06",0.67
same,"fold change (FC), gphb5 mRNA","[2]; Glycoprotein hormone beta-5, FDR 2.13E-64",0.69
same,"fold change (FC), gthα mRNA","[2]; Glycoprotein hormones alpha chain, FDR 0",1.28
same,total number of different expression genes (DEGs),"[2]; three replicates, TPM >5, FDR <0.05",820
same,number of downregulated genes,"[2]; three replicates, TPM >5, FDR <0.05, FC <0.7",575
same,number of upregulated genes,"[2]; three replicates, TPM >5, FDR <0.05, FC >1.5",245
same,"fold change (FC), pa2g3 mRNA","[2]; Group 3 secretory phospholipase A2-like, FDR 6.47E-212",0.29
same,"fold change (FC), hpt mRNA","[2]; Haptoglobin-like, FDR 4.16E-131",5.16
same,"fold change (FC), hmgb1 mRNA","[2]; High-mobility group box 1, FDR 7.95E-46",0.69
same,"fold change (FC), hint1 mRNA","[2]; Histidine triad nucleotide-binding protein 1, FDR 7.80E-16",0.66
same,"fold change (FC), h2a mRNA","[2]; Histone H2A, FDR 1.56E-20",0.63
same,"fold change (FC), h2b3 mRNA","[2]; Histone H2B 3, FDR 4.58E-23",0.53
same,"fold change (FC), h4 mRNA","[2]; Histone H4, FDR 0.002615",0.68
same,"fold change (FC), inhba mRNA","[2]; Inhibin-beta A, FDR 1.08E-11",1.90
same,"fold change (FC), il10ra mRNA","[2]; Interleukin-10 receptor 1, FDR 0.009871",27.19
same,"fold change (FC), erg7 mRNA","[2]; Lanosterol synthase, FDR 1.00E-62",0.43
same,"fold change (FC), lepr mRNA","[2]; Leptin receptor long form, FDR 6.73E-61",2.60
same,"fold change (FC), lhβ mRNA","[2]; Luteinizing hormone, FDR 0",1.32
same,"fold change (FC), rfx1 mRNA","[2]; MHC class II regulatory factor RFX1, FDR 0",0.28
same,"fold change (FC), mvp mRNA","[2]; Major vault protein, FDR 2.14E-255",0.64
same,"fold change (FC), mshr1 mRNA","[2]; Melanocyte-stimulating hormone receptor, FDR 0",0.43
same,"fold change (FC), m3k20 mRNA","[2]; Mitogen-activated protein kinase kinase 20, FDR 0.00526",0.31
same,"fold change (FC), smad7 mRNA","[2]; Mothers against decapentaplegic homolog 7, FDR 7.44E-31",1.78
same,"fold change (FC), mcfd2 mRNA","[2]; Multiple coagulation factor deficiency protein, FDR 3.57E-236",1.65
same,"fold change (FC), marcksl1b mRNA","[2]; Myristoylated alanine-rich C substrate 2, FDR 2.63E-101",0.67
same,"fold change (FC), nab1 mRNA","[2]; NGFI-A-binding protein 1, FDR 3.65E-131",5.88
same,"fold change (FC), nec1 mRNA","[2]; Neuroendocrine convertase 1, FDR 0",1.54
same,"fold change (FC), nfasc mRNA","[2]; Neurofascin, FDR 5.61E-52",10.71
same,"fold change (FC), nmb mRNA","[2]; Neuromedin-B-like, FDR 4.39E-07",3.29
same,"fold change (FC), nltp mRNA","[2]; Non-specific lipid-transfer protein, FDR 2.86E-12",0.41
same,"fold change (FC), nucb1 mRNA","[2]; Nucleobindin-1 precursor, FDR 1.72E-149",1.56
same,"fold change (FC), nlrp3 mRNA","[2]; PYD domains-containing protein 3-like, FDR 0.000497",0.26
same,"fold change (FC), fkbp11 mRNA","[2]; Peptidyl-prolyl cis-trans isomerase, FDR 0",1.94
same,"fold change (FC), gpr61 mRNA","[2]; Probable G-protein coupled receptor-like, FDR 2.17E-78",7.06
same,"fold change (FC), pdyn mRNA","[2]; Proenkephalin-B-like isoform X1, FDR 7.38E-17",5.14
same,"fold change (FC), prl mRNA","[2]; Prolactin, FDR 0",1.22
same,"fold change (FC), s100b mRNA","[2]; Protein S100-B, FDR 3.01E-240",0.31
same,"fold change (FC), ppp1r17 mRNA","[2]; Protein phosphatase 1 regulatory 17-like, FDR 2.87E-10",0.68
same,"fold change (FC), r4rl2 mRNA","[2]; Reticulon 4 receptor-like 2b precursor, FDR 6.85E-299",93.68
same,"fold change (FC), estd mRNA","[2]; S-formylglutathione hydrolase, FDR 4.80E-36",0.37
same,"fold change (FC), scg2 mRNA","[2]; Secretogranin II precursor, FDR 0",1.51
same,"fold change (FC), sqstm1 mRNA","[2]; Sequestosome-1 isoform X1, FDR 0",1.69
same,"fold change (FC), cdc42bp mRNA","[2]; Serine/threonine-protein kinase MRCK beta, FDR 0.004184",0.37
same,"fold change (FC), plk2 mRNA","[2]; Serine/threonine-protein kinase PLK2, FDR 0",5.78
same,"fold change (FC), sec11 mRNA","[2]; Signal peptidase complex catalytic subunit, FDR 1.55E-131",1.55
same,"fold change (FC), spcs3 mRNA","[2]; Signal peptidase complex subunit 3, FDR 2.74E-239",1.77
same,"fold change (FC), sstr3 mRNA","[2]; Somatostatin receptor type 3, FDR 3.09E-126",0.42
same,"fold change (FC), stat4 mRNA","[2]; Stat 4-like, FDR 9.86E-21",0.86
same,"fold change (FC), stat5a mRNA","[2]; Stat5.2 protein, FDR 0.04174356",0.89
same,"fold change (FC), sdf2l mRNA","[2]; Stromal cell-derived factor 2-like 1, FDR 1.30E-57",1.55
same,"fold change (FC), tt39b mRNA","[2]; Tetratricopeptide repeat protein 39B-like, FDR 6.74E-06",6.76
same,"fold change (FC), rdl mRNA","[2]; Thiosulfate sulfurtransferase, FDR 3.51E-111",1.57
same,"fold change (FC), ppp1r10 mRNA","[2]; Threonine-protein phosphatase 1 regulatory, FDR 2.43E-39",0.42
same,"fold change (FC), junb mRNA","[2]; Transcription factor jun-B, FDR 2.36E-96",1.89
same,"fold change (FC), rhoa mRNA","[2]; Transforming protein rhoa, FDR 0.042946",0.32
same,"fold change (FC), tpisb mRNA","[2]; Triosephosphate isomerase B, FDR 8.61E-53",0.68
same,"fold change (FC), tph1 mRNA","[2]; Tryptophan 5-hydroxylase 1, FDR 0",17.70
same,"fold change (FC), tubb mRNA","[2]; Tubulin beta-4B chain, FDR 3.79E-49",0.40
same,"fold change (FC), tsg6 mRNA","[2]; Tumor necrosis factor-inducible gene 6 protein, FDR 1.99E-06",5.12
same,"fold change (FC), crh mRNA","[2]; Urotensin 1, FDR 6.72E-06",1.74
same,"fold change (FC), snf8 mRNA","[2]; Vacuolar-sorting protein SNF8-like, FDR 1.18E-06",0.44
same,"fold change (FC), vdac3 mRNA","[2]; Voltage-dependent anion-selective protein 3, FDR 5.87E-44",0.69
same,"fold change (FC), zbtb8 mRNA","[2]; Zinc finger domain-containing protein 8A, FDR 1.08E-73",1.69
same,"fold change (FC), zfp36l mRNA","[2]; Zinc finger protein 36, C3H type-like 1b, FDR 1.92E-125",0.66
same,"fold change (FC), pim1 mRNA","[2]; threonine-protein kinase pim-1, FDR 0",3.25
